Experimental data from PubChem BioAssay AID330 (DTP/NCI, 2004).
Values joined by “and” are separate entries in the source; they are usually repeats but may differ in a detail not shown here. Identical values can stand only once. Toxic doses and inconclusive results are not listed. The calls were made as follows: active = survival T/C of 150% or more; inactive = T/C below 125% in these data.

Tested on: P388 leukemia ip, CD2F1 mice, survival T/C
Assay: NCI In Vivo Anticancer Drug Screen. Data for tumor model P388 Leukemia (intraperitoneal) in CD2F1 (CDF1) mice
Conditions: endpoint: median survival time, higher = longer survival
Method in brief: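 Mice carrying the transplanted tumor received test compound or vehicle. Survival was recorded in each group, and the value is the treated-group measurement divided by that of the vehicle-treated control group.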

[1] = dose: 50.0 mg/kg/injection, schedule: Q04DX003 (ip), vehicle: other

Measured: T/C

O=N[O-].O=N[O-].[Co].[NH-]CC[NH-].[NH-]CC[NH-]
inactive: dose: 6.25 mg/kg/injection, schedule: Q04DX003 (ip), vehicle: water 98 % of control | dose: 12.5 mg/kg/injection, schedule: Q04DX003 (ip), vehicle: distilled water + Tween-80 96 % of control | dose: 12.5 mg/kg/injection, schedule: Q04DX003 (ip), vehicle: water 101 % of control | dose: 25.0 mg/kg/injection, schedule: Q04DX003 (ip), vehicle: water 102 % of control | dose: 50.0 mg/kg/injection, schedule: Q04DX003 (ip), vehicle: distilled water + Tween-80 99 % of control | dose: 50.0 mg/kg/injection, schedule: Q04DX003 (ip), vehicle: water 96 % of control | dose: 100.0 mg/kg/injection, schedule: Q04DX003 (ip), vehicle: distilled water + Tween-80 108 % of control

C=CCOc1cc2c(cc1C(C)c1ccc(OCC)cc1)OCO2 (centres undefined)
inactive: dose: 50.0 mg/kg/injection, schedule: Q01DX005 (ip), vehicle: saline with Tween-80 100 % of control and 104 % of control | dose: 100.0 mg/kg/injection, schedule: Q01DX005 (ip), vehicle: saline with Tween-80 112 % of control and 91 % of control | dose: 200.0 mg/kg/injection, schedule: Q01DX005 (ip), vehicle: saline with Tween-80 122 % of control and 123 % of control

O=S1(=O)C2CCCCC2C2CCCCC21 (centres undefined)
inactive: dose: 100.0 mg/kg/injection, schedule: Q01DX001 (ip), vehicle: saline with Tween-80 108 % of control | dose: 200.0 mg/kg/injection, schedule: Q01DX001 (ip), vehicle: saline with Tween-80 106 % of control | dose: 400.0 mg/kg/injection, schedule: Q01DX001 (ip), vehicle: saline with Tween-80 113 % of control

COC(F)C(C)=O (centres undefined)
inactive: dose: 100.0 mg/kg/injection, schedule: Q01DX001 (ip), vehicle: other 103 % of control | dose: 200.0 mg/kg/injection, schedule: Q01DX001 (ip), vehicle: other 101 % of control | dose: 400.0 mg/kg/injection, schedule: Q01DX001 (ip), vehicle: other 112 % of control

CCOC(=O)CN(CC(=O)OCC)c1ccccc1OCCOc1ccccc1N(CC(=O)OCC)CC(=O)OCC
inactive: dose: 60.0 mg/kg/injection, schedule: Q01DX005 (ip), vehicle: Klucel (hydroxypropylcellulose) (HPC) 95 % of control | dose: 120.0 mg/kg/injection, schedule: Q01DX005 (ip), vehicle: Klucel (hydroxypropylcellulose) (HPC) 96 % of control | dose: 240.0 mg/kg/injection, schedule: Q01DX005 (ip), vehicle: Klucel (hydroxypropylcellulose) (HPC) 93 % of control

Nc1nc2c(c(=O)[nH]1)N(C(=O)c1ccc(S(=O)(=O)F)cc1)C(CNc1ccc(C(=O)NC(CCC(=O)O)C(=O)O)cc1)CN2 (centres undefined)
inactive: [1] 104 % of control | dose: 100.0 mg/kg/injection, schedule: Q04DX003 (ip), vehicle: other 104 % of control | dose: 200.0 mg/kg/injection, schedule: Q04DX003 (ip), vehicle: other 113 % of control

O=c1[nH]c2n[nH]c(=S)n2c2c1CCCC2
inactive: dose: 50.0 mg/kg/injection, schedule: Q04DX002 (ip), vehicle: saline with Tween-80 99 % of control | dose: 100.0 mg/kg/injection, schedule: Q04DX002 (ip), vehicle: saline with Tween-80 97 % of control | dose: 200.0 mg/kg/injection, schedule: Q04DX002 (ip), vehicle: saline with Tween-80 99 % of control

Cc1cccc(C)c1Nc1nnc(-c2ccc(N(C)C)cc2)s1
inactive: dose: 60.0 mg/kg/injection, schedule: Q01DX005 (ip), vehicle: saline with Tween-80 86 % of control | dose: 120.0 mg/kg/injection, schedule: Q01DX005 (ip), vehicle: saline with Tween-80 87 % of control

COc1ccc(C2C3CCCC(C3=O)C(c3ccc(OC)cc3)N2C)cc1 (centres undefined)
inactive: dose: 100.0 mg/kg/injection, schedule: Q04DX003 (ip), vehicle: saline 99 % of control | dose: 200.0 mg/kg/injection, schedule: Q04DX003 (ip), vehicle: saline 97 % of control | dose: 400.0 mg/kg/injection, schedule: Q04DX003 (ip), vehicle: saline 96 % of control

O=C(CCNC(=O)OCc1ccccc1)NC(CSCc1ccccc1)C(=O)O (centres undefined)
inactive: dose: 6.25 mg/kg/injection, schedule: Q01DX009 (ip), vehicle: water 100 % of control | dose: 12.5 mg/kg/injection, schedule: Q01DX009 (ip), vehicle: water 100 % of control | dose: 25.0 mg/kg/injection, schedule: Q01DX009 (ip), vehicle: water 95 % of control | dose: 50.0 mg/kg/injection, schedule: Q01DX009 (ip), vehicle: water 100 % of control | dose: 100.0 mg/kg/injection, schedule: Q01DX009 (ip), vehicle: water 95 % of control

CCOC(=O)N1CCN(C(=O)c2nc3ccccc3[nH]2)CC1
inactive: dose: 50.0 mg/kg/injection, schedule: Q01DX005 (ip), vehicle: Klucel (hydroxypropylcellulose) (HPC) 99 % of control | dose: 100.0 mg/kg/injection, schedule: Q01DX005 (ip), vehicle: Klucel (hydroxypropylcellulose) (HPC) 101 % of control | dose: 200.0 mg/kg/injection, schedule: Q01DX005 (ip), vehicle: Klucel (hydroxypropylcellulose) (HPC) 95 % of control

COc1ccc2c(c1OC(C)=O)-c1cc(OC(C)=O)cc3c1C(C2)N(C(=O)CN(CCCl)CCCl)CC3 (centres undefined)
inactive: dose: 50.0 mg/kg/injection, schedule: Q04DX003 (ip), vehicle: DMSO 94 % of control | [1] 95 % of control
active: dose: 6.25 mg/kg/injection, schedule: Q04DX003 (ip), vehicle: other 150 % of control | dose: 12.5 mg/kg/injection, schedule: Q04DX003 (ip), vehicle: other 170 % of control | dose: 25.0 mg/kg/injection, schedule: Q04DX003 (ip), vehicle: DMSO 170 % of control | dose: 25.0 mg/kg/injection, schedule: Q04DX003 (ip), vehicle: other 185 % of control
